These results are taken from the Kinase Knowledgebase extract (Sharma et al. 2016).

Each structure is given as a SMILES string.

A word on the Ki: it is the dissociation constant of the complex between target and ligand, obtained from inhibition or displacement. Higher therefore signals a looser hold on the target.

The assay deals with PIK3CG (human) (UniProt P48736). Nature of the assay: Inhibition of PIK3CG Kinase Activity.
PIK3CG (human), sequence (P48736 whole entry, looked up): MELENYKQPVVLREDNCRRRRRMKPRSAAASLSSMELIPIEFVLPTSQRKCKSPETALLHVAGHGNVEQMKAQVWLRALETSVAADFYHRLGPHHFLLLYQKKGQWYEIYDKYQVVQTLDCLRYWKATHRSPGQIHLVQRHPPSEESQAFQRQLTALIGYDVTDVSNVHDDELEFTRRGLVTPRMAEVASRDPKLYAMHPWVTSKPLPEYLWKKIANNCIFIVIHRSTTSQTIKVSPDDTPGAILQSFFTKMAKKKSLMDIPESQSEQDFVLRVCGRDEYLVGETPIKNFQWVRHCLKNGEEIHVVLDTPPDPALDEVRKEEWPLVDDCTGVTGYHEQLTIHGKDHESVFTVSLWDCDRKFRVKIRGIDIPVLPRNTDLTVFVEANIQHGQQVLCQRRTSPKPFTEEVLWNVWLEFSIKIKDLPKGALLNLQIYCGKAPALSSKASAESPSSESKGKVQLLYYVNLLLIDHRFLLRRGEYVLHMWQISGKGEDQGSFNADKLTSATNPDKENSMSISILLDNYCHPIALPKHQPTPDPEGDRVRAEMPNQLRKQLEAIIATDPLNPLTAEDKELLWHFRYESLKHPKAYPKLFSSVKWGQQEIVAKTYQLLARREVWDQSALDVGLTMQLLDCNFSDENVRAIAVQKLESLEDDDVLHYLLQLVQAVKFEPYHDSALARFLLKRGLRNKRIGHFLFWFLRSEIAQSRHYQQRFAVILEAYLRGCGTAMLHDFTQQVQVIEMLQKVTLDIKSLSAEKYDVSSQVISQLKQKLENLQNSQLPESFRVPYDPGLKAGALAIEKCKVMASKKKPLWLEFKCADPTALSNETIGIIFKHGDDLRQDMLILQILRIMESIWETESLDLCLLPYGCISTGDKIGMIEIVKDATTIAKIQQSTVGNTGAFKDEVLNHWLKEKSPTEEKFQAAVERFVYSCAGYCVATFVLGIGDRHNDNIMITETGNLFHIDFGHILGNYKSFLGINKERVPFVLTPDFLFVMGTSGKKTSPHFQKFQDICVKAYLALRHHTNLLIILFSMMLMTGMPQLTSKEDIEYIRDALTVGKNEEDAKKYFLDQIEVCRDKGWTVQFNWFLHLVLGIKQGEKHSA
In turn, `Cc1cc(-c2cncc(NC(=O)C(C)C)c2)nc2c1C(=O)N(c1cnn(CC(F)(F)F)c1)C2(C)C` showed a Ki of 100 to 490 nM.
In the case of `COc1cc(-c2ccc3c(n2)C(O)N(c2cnn(CC(F)(F)F)c2)C3=O)cnc1OC` (stereo not given) it was below 100 nM; in that of `COc1cncc(-c2cc(C)c3c(n2)C2(CC(O)C2)N(c2cnn(CC(F)(F)F)c2)C3=O)c1` (stereo not given), below 100 nM; in that of `COc1ccc(-c2cc(C)c3c(n2)C(C)(C)N(c2cnn(CC(F)F)c2)C3=O)nc1OC`, below 100 nM.
The compound `COc1cc(-c2ccc3c(c2)CN(c2cnn(CC(F)F)c2)C3=O)cnc1OC` showed a Ki below 100 nM.
In the case of `CCOc1ncc(-c2cc(C)c3c(c2)C(C)N(c2cnn(CC(F)(F)F)c2)C3=O)cc1OC` (stereo not given) it was below 100 nM; in that of `COc1cc(-c2ccc3c(n2)C(C)N(c2ccn(CC(C)(C)O)n2)C3=O)cnc1OC` (stereo not given), below 100 nM; in that of `COc1cc(-c2ccc3c(n2)CN(c2ccn(C[C@@H](C)O)n2)C3=O)cnc1OC`, below 100 nM.
In the case of `COc1cc(-c2ccc3c(n2)CN(c2ccon2)C3=O)cnc1OC` it was below 100 nM; in that of `CCOCCOc1cc(-c2cc(C)c3c(n2)CN(c2cnn(CC(F)(F)F)c2)C3=O)cnc1OC`, below 100 nM; in that of `Cc1cc(-c2cncc(C(=O)O)c2)nc2c1C(=O)N(c1cnn(CC(F)(F)F)c1)C2(C)C`, below 100 nM.
In the case of `COc1cc(-c2ccc3c(n2)CN(c2cnn(CC(O)CF)c2)C3=O)cnc1OC` (stereo not given) it was below 100 nM; in that of `COc1cc(-c2ccc3c(n2)CN(c2ccn[nH]2)C3=O)cnc1OC`, below 100 nM; in that of `COc1cc(-c2ccc3c(n2)CN(c2cnn(C(F)(F)C(N)=O)c2)C3=O)cnc1OC`, below 100 nM.
As for `COc1cc(-c2ccc3c(n2)CN(c2ccc(N4CCN(C)CC4)nc2)C3=O)cnc1OC`, the Ki was below 100 nM.
In the case of `CCNC(=O)c1cc(-c2cc(C)c3c(n2)C2(CCOC2)N(c2cnn(CC(F)(F)F)c2)C3=O)cnc1OC` (stereo not given) it was below 100 nM; in that of `Cc1cc(-c2cncc(OC(F)F)c2)nc2c1C(=O)N(c1ccnc(OCC(F)F)c1)C2`, below 100 nM; in that of `CCN(CC)CCn1cc(N2Cc3nc(-c4cnc(OC)c(OC)c4)ccc3C2=O)cn1`, 100 to 490 nM.
In the case of `COc1ncc(-c2cc(C)c3c(n2)C(C)(C)N(c2cnn(CC(F)(F)F)c2)C3=O)cc1C(=O)NCC#N` it was below 100 nM; in that of `COc1cc(-c2ccc3c(n2)C(C)N(c2ccn(CC(F)(F)F)n2)C3=O)cnc1OC` (stereo not given), below 100 nM.
In the case of `CCOc1cncc(-c2cc(C)c3c(n2)C(C)(OC)N(c2cnn(CC(F)(F)F)c2)C3=O)c1` (stereo not given) it was below 100 nM; in that of `COc1ncc(-c2cc(C)c3c(n2)C(C)N(c2cnn(CC(F)F)c2)C3=O)cc1C(=O)NCC(F)F` (stereo not given), below 100 nM; in that of `COc1cc(-c2cc(C)c3c(n2)C(O[C@H]2CCOC2)N(c2cnn(CC(F)(F)F)c2)C3=O)cnc1OC` (stereo not given in full), below 100 nM.
`COc1cc(-c2cc(C)c3c(n2)CN(c2cncc(CN(C)C)c2)C3=O)cnc1OC` came in with a Ki below 100 nM.
In the case of `COc1cc(-c2ccc3c(n2)[C@H](C)N(c2ccn(CC(F)(F)F)n2)C3=O)cnc1OC` it was below 100 nM; in that of `COc1cc(-c2ccc3c(n2)CN(c2ccn(CC(F)(F)F)n2)C3=O)cnc1OC`, below 100 nM; in that of `CCn1cc(N2Cc3nc(-c4cnc(OC)c(OC)c4)ccc3C2=O)cn1`, below 100 nM.
In the case of `COc1cc(-c2ccc3c(n2)CN(c2cnn(C(C)(C)C#N)c2)C3=O)cnc1OC`, the inhibition constant (Ki) is below 100 nM.
In the case of `COc1cc(-c2cc(C)c3c(n2)CN(c2ccnc(F)c2)C3=O)cnc1OC` it was below 100 nM; in that of `Cc1cc(-c2cncc(NS(=O)(=O)N(C)C)c2)nc2c1C(=O)N(c1cnn(CC(F)(F)F)c1)C2(C)C`, below 100 nM.
In the case of `COc1ccc(-c2cc(C)c3c(n2)CN(c2cnn(CC(F)(F)F)c2)C3=O)nc1OC` it was below 100 nM; in that of `Cc1cc(-c2cncc(OCC(F)(F)F)c2)nc2c1C(=O)N(c1cnn(CC(F)F)c1)C2(C)C`, below 100 nM; in that of `COc1cc(-c2ccc3c(n2)CN(c2cnn(Cc4cccnc4)c2)C3=O)cnc1OC`, below 100 nM.
In the case of `COc1cncc(-c2cc(C)c3c(n2)C(C)(C)N(c2cnn(C4CC4)c2)C3=O)c1` it was 100 to 490 nM.
Consider `COc1ncc(-c2cc(C)c3c(n2)C(C)(C)N(c2cnn(CC(F)(F)F)c2)C3=O)cc1C(=O)NCC(C)O` (stereo not given), for which the inhibition constant (Ki) is below 100 nM.
In turn, `COc1ncc(-c2ccc3c(n2)C(C)N(c2cnn(CC(F)(F)F)c2)C3=O)cc1OC(F)F` (stereo not given) yielded a Ki below 100 nM.
In the case of `COc1cc(-c2cc(C)c3c(n2)CN(c2ccn(C)n2)C3=O)cnc1OC` it was below 100 nM; in that of `CCC1c2nc(-c3cnc(OC)c(OC)c3)ccc2C(=O)N1c1cnn(CC(F)(F)F)c1` (stereo not given), below 100 nM; in that of `COc1cc(-c2cc(C)c3c(n2)CN(c2cnc(OC)c(F)c2)C3=O)cnc1OC`, below 100 nM.
On to `COCCOc1ncc(-c2cc(C)c3c(c2)CN(c2cnn(CC(F)(F)F)c2)C3=O)cc1OC`, for which the inhibitory constant (Ki) was below 100 nM.
In the case of `COc1cc(-c2ccc3c(c2)CN(c2ccn(C)n2)C3=O)cnc1OC` it was below 100 nM; in that of `COc1cc(-c2ccc3c(n2)C(C)N(c2cnn(C=C(F)F)c2)C3=O)cnc1OC` (stereo not given), below 100 nM; in that of `CC#CCn1cc(N2Cc3cc(-c4cnc(OC)c(OC)c4)ccc3C2=O)cn1`, 100 to 490 nM.
In the case of `COc1cc(-c2ccc3c(n2)C(C)(C)N(c2cnn(CC#N)c2)C3=O)cnc1OC` it was below 100 nM.
On to `CCCOc1cc(-c2cc(C)c3c(n2)CN(c2ccn(C4COC4)n2)C3=O)cnc1OC`, for which the inhibitory constant (Ki) is below 100 nM.
In the case of `COc1cc(-c2cc(C)c3c(c2)CN(c2cnn(CC(F)(F)F)c2)C3=O)cnc1OC` it was below 100 nM; in that of `COc1cc(-c2ccc3c(n2)C(C)N(c2cncc(C(O)C(F)(F)F)c2)C3=O)cnc1OC` (stereo not given), below 100 nM.
`COc1ncc(-c2ccc3c(n2)CN(c2cnn(C(C)(C)C#N)c2)C3=O)cc1OC(F)F` gave a Ki below 100 nM.
In the case of `COc1ncc(-c2cc(C)c3c(n2)C(C)(C)N(c2cnn(CC(F)(F)F)c2)C3=O)cc1C(=O)O` it was below 100 nM; in that of `Cc1cc(-c2cncc(C(=O)NC3CC3)c2)nc2c1C(=O)N(c1cnn(CC(F)(F)F)c1)C2`, below 100 nM.
Consider `COc1cncc(-c2cc(C)c3c(n2)C2(CN(C(=O)OC(C)(C)C)C2)N(c2cnn(CC(F)(F)F)c2)C3=O)c1`, for which the inhibitory constant (Ki) is below 100 nM.
In the case of `COc1cc(-c2ccc3c(n2)C(C)N(c2ccn(CC(C)(C)F)n2)C3=O)cnc1OC` (stereo not given) it was below 100 nM.
In the case of `COc1cc(-c2ccc3c(n2)CN(c2cc(C)[nH]n2)C3=O)cnc1OC` it was below 100 nM; in that of `COc1cc(-c2ccc3c(n2)CN(c2ccc(N4CCC(CO)C4)nc2)C3=O)cnc1OC` (stereo not given), 100 to 490 nM; in that of `CCOc1ncc(-c2cc(C)c3c(n2)CN(c2cncc(CCC#N)c2)C3=O)cc1OC`, below 100 nM.
On to `Cc1cc(-c2cncc(OC(F)F)c2)nc2c1C(=O)N(c1cn[nH]c1)C2`, for which the inhibition constant Ki was below 100 nM.
Turning to `CCOc1cncc(-c2cc(C)c3c(n2)C(C)(C)N(c2cnn(CC(F)(F)F)c2)C3=O)c1`, the inhibition constant (Ki) was below 100 nM.
In the case of `COc1cc(-c2ccc3c(n2)CN(c2cn[nH]c2)C3=O)cnc1OC` it was below 100 nM; in that of `CCOc1ncc(-c2cc(C)c3c(n2)CN(c2cnn(C(C)(C)C#N)c2)C3=O)cc1OC`, below 100 nM; in that of `COc1cc(-c2cc(C)c3c(n2)CN(c2cccc(C4(C#N)CC4)c2)C3=O)cnc1OC`, below 100 nM.
In the case of `COc1cc(-c2cc(C)c3c(n2)C(OC2CCC2)N(c2cnn(CC(F)(F)F)c2)C3=O)cnc1OC` (stereo not given) it was below 100 nM; in that of `COc1cc(-c2ccc3c(n2)CN(c2nccs2)C3=O)cnc1OC`, below 100 nM; in that of `CCc1ncc(-c2cc(C)c3c(n2)C(C)(C)N(c2cnn(CC(F)(F)F)c2)C3=O)cc1OC`, below 100 nM.
In the case of `COc1cncc(-c2cc(C)c3c(n2)C(C)N(c2ccn(CC4CCCO4)n2)C3=O)c1` (stereo not given) it was below 100 nM.
`C#CCNC(=O)c1cncc(-c2cc(C)c3c(n2)C(C)N(c2cnn(CC(F)(F)F)c2)C3=O)c1` (stereo not given) yielded a Ki below 100 nM.
Regarding `N#CCn1cc(N2Cc3cc(-c4cnc5ccccc5c4)ccc3C2=O)cn1`, the inhibition constant Ki was in the range of 100 to 490 nM.
Compound `Cc1cc(-c2cncc(C(=O)O)c2)nc2c1C(=O)N(c1ccn([C@H]3CCOC3)n1)C2` showed a Ki below 100 nM.
In the case of `CCOc1ncc(-c2cc(C)c3c(n2)C(O)N(c2cnn(CC(F)(F)F)c2)C3=O)cc1OC` (stereo not given) it was below 100 nM; in that of `COc1cc(-c2cc(C)c3c(n2)CN(c2cnn(C)c2)C3=O)cnc1OC`, below 100 nM; in that of `COc1cc(-c2cc(C)c3c(n2)CN(c2ccc(C(C)C)nc2)C3=O)cnc1OC`, below 100 nM.
In the case of `COc1ncc(-c2cc(C)c3c(n2)CN(c2cnn(C(C)(C)C#N)c2)C3=O)cc1OCC1CC1` it was below 100 nM; in that of `COc1cc(-c2cc(C)c3c(n2)CN(c2ccnc(OCC(F)(F)F)c2)C3=O)cnc1OC`, below 100 nM.
In the case of `COc1cc(OC)cc(-c2cc(C)c3c(n2)[C@H](C)N(c2cnn(CC(F)(F)F)c2)C3=O)c1` it was below 100 nM; in that of `COc1cc(-c2ccc3c(n2)C(C)N(c2cnn(CC#N)c2)C3=O)cnc1OC` (stereo not given), below 100 nM; in that of `COc1cc(-c2ccc3c(n2)C(C)N(c2cccc(C(O)C(F)(F)F)n2)C3=O)cnc1OC` (stereo not given), below 100 nM.
Compound `Cc1cc(-c2cncc(OCC(F)(F)F)c2)nc2c1C(=O)N(c1cnn(CC#N)c1)C2(C)C` had a Ki below 100 nM.
In the case of `COc1cc(-c2cc(C)c3c(n2)CN(c2cncnc2)C3=O)cnc1OC` it was below 100 nM; in that of `CCOc1cc(-c2cc(C)c3c(n2)CN(c2cnn(CC#N)c2)C3=O)cnc1OCC`, below 100 nM; in that of `CCNS(=O)(=O)c1cc(-c2cc(C)c3c(n2)C(C)(C)N(c2cnn(CC(F)(F)F)c2)C3=O)cnc1OC`, below 100 nM.
In the case of `C=CCNC(=O)c1cncc(-c2cc(C)c3c(n2)C(C)(C)N(c2cnn(CC(F)(F)F)c2)C3=O)c1` it was below 100 nM; in that of `COc1cc(-c2ccc3c(c2)CN(c2cnn(CC(F)(F)F)c2)C3=O)cnc1OC`, below 100 nM.
In the case of `COc1cc(-c2ccc3c(n2)CN(c2cnn(C(C)C)c2)C3=O)cnc1OC` it was below 100 nM; in that of `COc1cc(-c2cc(N(C)C)c3c(n2)CN(c2cnn(CC#N)c2)C3=O)cnc1OC`, below 100 nM; in that of `COc1cc(-c2ccc3c(n2)C2(CC2)N(c2cnn(CC(F)(F)F)c2)C3=O)cnc1OC`, below 100 nM.
In turn, `Cc1cc(-c2cncc(OC3CC3)c2)nc2c1C(=O)N(c1cnn(CC(F)(F)F)c1)C2(C)C` yielded a Ki below 100 nM.
